These results are taken from US20070135375A1, “Sulfamoyl sulfonate prodrugs” (priority 2005, published 2007).

The term IC50 denotes the concentration needed to halve the response being measured. In general, solubility refers to how much of the substance goes into solution per volume. Higher therefore signals a readily soluble substance.

Where two headings read alike, the source gives them in different places.

The target of data set [1] is human carbonic anhydrase I (Homo sapiens, UniProt P00915). Description: Carbonic anhydrase inhibition, photometric, nitrophenyl acetate conversion (CA I). The format is biochemical. The text has this:
(§1) Photometric determination of the inhibition of human carbonic anhydrase I or II with sulfonamides or sulfamates on microtiter plates with the aid of enzymatic conversion of nitrophenyl acetate with a color change from colorless to yellow.

Data set [2] deals with human carbonic anhydrase II (Homo sapiens, UniProt P00918). Description: Carbonic anhydrase inhibition, photometric, nitrophenyl acetate conversion (CA II). Type of data set: biochemical.
Description: as §1

Data set [3] is described as follows: Solubility in water (kinetic nephelometry / thermodynamic HPLC). The format is physicochemical. Particulars: for solubility: 25 °C, aqueous buffer. On the procedure: The compounds according to the invention were measured as 10 mmol DMSO solution in a 0.01 M phosphate buffer solution at pH 7.4 and 25° C. with nephelometry and turbidity.
While in a turbid state, the solution to be tested was added drop by drop to the buffer solution until a precipitate settled.
The precipitate was detected in a dilution series (compounds in a phosphate buffer solution according to the invention) by nephelometry.
b.) Thermodynamic Measurement:
The compounds in solid form according to the invention were added to an excess of an aqueous buffer system of various pH values. It was stirred 24 hours at 25° C. After centrifuging, the solution was examined with HPLC (HPLC: column: Xterra MS C18 2.5 μm, 30×4.6 mm).

Data set [4] in a line: Hydrolysis in aqueous buffer of various pH values at 37° C., HPLC. The format is physicochemical. The method, then: The compounds according to the invention were measured as a DMSO solution in an aqueous buffer of various pH values at 37° C.
The quantification took place through HPLC (HPLC column: Xterra MS C18 2.5 μm 4.6×30 mm). Based on the test substances to be measured, the following gradient system was used for the HPLC: • Acidic gradient: A: water/0.01% trifluoroacetic acid, B: acetonitrile/0.01% trifluoroacetic acid—0 min 5% B, 0-3 min 65% B, 3-5 min 65% B, 5-6 min 5% B • Alkaline gradient: A: water/0.025% ammonia, B: acetonitrile/0.025% ammonia—0 min 20% B, 0-3 min 80% B, 3-5 min 80% B, 5-6 min 20% B. The quantification took place after 1 and 2 hours and after 24 hours.

Data set [5] can be described thus: Stability in simulated gastric juice (NaCl solution with pepsin, pH~1.2), HPLC. The format is physicochemical. Particulars: 30 min, 37° C., column head pH = 1, cells note pH = 1.2 (gastric juice). On the procedure: The quantification took place through HPLC (HPLC column: Xterra MS C18 2.5 μm 4.6×30 mm). Based on the test substances to be measured, the following gradient system was used for the HPLC: • Acidic gradient: A: water/0.01% trifluoroacetic acid, B: acetonitrile/0.01% trifluoroacetic acid—0 min 5% B, 0-3 min 65% B, 3-5 min 65% B, 5-6 min 5% B • Alkaline gradient: A: water/0.025% ammonia, B: acetonitrile/0.025% ammonia—0 min 20% B, 0-3 min 80% B, 3-5 min 80% B, 5-6 min 20% B. The quantification took place after 1 and 2 hours and after 24 hours. Stability in Simulated Gastric Juice:
Solutions of the compounds according to the invention were incubated at 37° C. in simulated gastric juice (aqueous NaCl solution with pepsin, pH˜1.2).
The quantification took place through HPLC (HPLC-column: Xterra MS C18 2.5 μm 4.6×30 mm) using the gradient system: […]
A: water/0.01% trifluoroacetic acid, B: acetonitrile/0.01% trifluoroacetic acid—0 min 5% B, 0-3 min 65% B, 3-5 min 65% B, 5-6 min 5% B.
The quantification took place after 0.5, 1, 1.5 and 2 hours.

Where [6] appears, read: human carbonic anhydrase I, read-out: CA I IC50.
The mark [7] stands for this setting: human carbonic anhydrase II, read-out: CA II IC50.

Chain of human carbonic anhydrase I (P00915 whole entry): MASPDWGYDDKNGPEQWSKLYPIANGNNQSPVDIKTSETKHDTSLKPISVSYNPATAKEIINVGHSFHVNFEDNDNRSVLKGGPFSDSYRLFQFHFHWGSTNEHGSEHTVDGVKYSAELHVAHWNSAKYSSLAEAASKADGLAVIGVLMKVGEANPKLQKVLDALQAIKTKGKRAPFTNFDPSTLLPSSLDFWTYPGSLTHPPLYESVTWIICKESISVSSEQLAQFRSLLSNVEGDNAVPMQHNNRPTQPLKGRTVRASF

Take `C[C@]12CC[C@@H]3c4ccc(O)cc4CC[C@H]3[C@@H]1CC[C@@H]2OS(=O)(=O)c1cccc(S(N)(=O)=O)c1` [3-Hydroxyestra-1,3,5(10)-trien-17β-yl 3′-sulfamoylphenyl Sulfonate]: the IC50 turned out to be 1.7 µM in data set [1] (setting [6]) and 0.081 µM in data set [2] (setting [7]). Also, in data set [3], the solubility was 3 µg/mL. In addition, the Decomposition in % in data set [4] (pH = 1, 37° C., 1 h) is given as 7%; in data set [4] (pH = 1, 37° C., 2 h), 14%; in data set [4] (pH = 1, 37° C., 24 h), 80%; in data set [4] (pH = 7.4, 37° C., 1 h), 6%; in data set [4] (pH = 7.4, 37° C., 2 h), 13%; in data set [4] (pH = 7.4, 37° C., 24 h) it was 84%. Moreover, the Decomposition in % in data set [5] was 4%.
For `C[C@]12CC[C@H]3[C@@H](CCC4=CC(=O)CC[C@@]43C)[C@@H]1CC[C@@H]2OS(=O)(=O)c1cccc(S(N)(=O)=O)c1` [3-Oxo-androst-4-en-17β-yl 3′-sulfamoylphenyl Sulfonate], the IC50 in data set [1] was determined as 2.3 µM; in data set [2], 0.12 µM. The compound further showed a solubility in data set [3] of 5 µg/mL. In addition, the Decomposition in % in data set [4] (pH = 1, 37° C., 1 h) came to 6%; in data set [4] (pH = 1, 37° C., 2 h) it was 11%; in data set [4] (pH = 1, 37° C., 24 h) it was 78%; in data set [4] (pH = 7.4, 37° C., 1 h) it was 6%; in data set [4] (pH = 7.4, 37° C., 2 h), 12%; in data set [4] (pH = 7.4, 37° C., 24 h) it was 75%. Besides, the Decomposition in % in data set [5] is 3%.
For `C[C@@H]1CC2=CC(=O)CC[C@]2(C)[C@H]2CC[C@]3(C)[C@@H](OS(=O)(=O)c4cccc(S(N)(=O)=O)c4)CC[C@H]3[C@H]12` [3-oxo-7α-methylandrost-4-en-17β-yl 3′-sulfamoylphenyl sulfonate], the values for the IC50 in data set [1] (setting [6]) and in data set [2] (setting [7]) were 2.3 µM and 0.12 µM, respectively. In addition, the “Solubility in Water” value in data set [3] is recorded as “About 6 mg/l”. Further, the Decomposition in % in data set [4] (pH = 1, 37° C., 1 h) is recorded as 6%; in data set [4] (pH = 1, 37° C., 2 h), 11%; in data set [4] (pH = 1, 37° C., 24 h), 71%; in data set [4] (pH = 7.4, 37° C., 1 h), 6%; in data set [4] (pH = 7.4, 37° C., 2 h), 11%; in data set [4] (pH = 7.4, 37° C., 24 h) it was 70%.
As for `C[C@]12CC[C@@H]3c4ccc(OS(N)(=O)=O)cc4CC[C@H]3[C@@H]1CC[C@@H]2O` [Estradiol-3-sulfamat, Estradiol-3-sulfamate, reference compound], the concentration for half-maximal inhibition (IC50) in data set [1] (setting [6]) amounted to 0.157 ± 0.0106 µM; in data set [2] (setting [7]), 0.034 µM.
Consider `CCC(=O)O[C@H]1CC[C@H]2[C@@H]3CCC4=CC(=O)CC[C@]4(C)[C@H]3CC[C@]12C` [Testosterone Propionate, 3-Oxoandrost-4-en-17β-yl n-propionate, reference compound], for which the “Solubility in Water (in words)” value in data set [3] was “insoluble”. Besides, the Decomposition in % worked out at 0% in data set [4] (pH = 1, 37° C., 1 h); 0% in data set [4] (pH = 1, 37° C., 2 h); 0% in data set [4] (pH = 1, 37° C., 24 h); 0% in data set [4] (pH = 7.4, 37° C., 1 h); 0% in data set [4] (pH = 7.4, 37° C., 2 h); 0% in data set [4] (pH = 7.4, 37° C., 24 h). Besides, the Decomposition in % in data set [5] is 0%.
As to “Zidovudine-sulfamoylphenyl Sulfonate [Zidovudinsulfonat]”, the concentration for half-maximal inhibition (IC50) in data set [1] (setting [6]) is 2.9 µM; in data set [2] (setting [7]) it was 1.1 µM.
